# System: MDA-MB-231 complex spheroid viability
# Experiment: Anticancer human tumor MDA-MB-231/ATCC cell line growth inhibition;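 further: drug exposure lasted 7 days starting on day 3 of spheroid growth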
# Conditions: for IC50: curve of first compound; for viability, T/C: stronger effect = lower value
# Method in brief: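 Multicellular complex spheroids of tumor cells with human endothelial cells (HUVEC) and mesenchymal stem cells; the LSD1 inhibitor iadademstat was combined with standard-of-care or investigational agents. Top concentration at or near clinical Cmax, half-log dilutions; final DMSO ≤0.25%.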
compound,measurement,setting,value
CC1(C)CCC(CN2CCN(c3ccc(C(=O)NS(=O)(=O)c4ccc(NCC5CCOCC5)c([N+](=O)[O-])c4)c(Oc4cnc5[nH]ccc5c4)c3)CC2)=C(c2ccc(Cl)cc2)C1 + NC1CCC(NC2CC2c2ccccc2)CC1,IC50,second compound 0.1 µM,6.76 µM
same,IC50,second compound 0.316 µM,6.45 µM
same,IC50,second compound 1 µM,5.38 µM
same,IC50,second compound 3.16 µM,3.86 µM
same,IC50,second compound 10 µM,0.735 µM
same,"viability, T/C","second compound 0.1 µM, first compound 0.0316 µM",100%
same,"viability, T/C","second compound 0.1 µM, first compound 0.1 µM",98.6%
same,"viability, T/C","second compound 0.1 µM, first compound 0.316 µM",100%
same,"viability, T/C","second compound 0.1 µM, first compound 1 µM",102%
same,"viability, T/C","second compound 0.1 µM, first compound 3.16 µM",92.6%
same,"viability, T/C","second compound 0.1 µM, first compound 10 µM",27.8%
same,"viability, T/C","second compound 0.316 µM, first compound 0.0316 µM",102%
same,"viability, T/C","second compound 0.316 µM, first compound 0.1 µM",103%
same,"viability, T/C","second compound 0.316 µM, first compound 0.316 µM",97.3%
same,"viability, T/C","second compound 0.316 µM, first compound 1 µM",97.3%
same,"viability, T/C","second compound 0.316 µM, first compound 3.16 µM",86%
same,"viability, T/C","second compound 0.316 µM, first compound 10 µM",27.6%
same,"viability, T/C","second compound 1 µM, first compound 0.0316 µM",98.9%
same,"viability, T/C","second compound 1 µM, first compound 0.1 µM",95.6%
same,"viability, T/C","second compound 1 µM, first compound 0.316 µM",99.4%
same,"viability, T/C","second compound 1 µM, first compound 1 µM",95.3%
same,"viability, T/C","second compound 1 µM, first compound 3.16 µM",72.8%
same,"viability, T/C","second compound 1 µM, first compound 10 µM",23.5%
same,"viability, T/C","second compound 3.16 µM, first compound 0.0316 µM",81.1%
same,"viability, T/C","second compound 3.16 µM, first compound 0.1 µM",77.3%
same,"viability, T/C","second compound 3.16 µM, first compound 0.316 µM",74.8%
same,"viability, T/C","second compound 3.16 µM, first compound 1 µM",75%
same,"viability, T/C","second compound 3.16 µM, first compound 3.16 µM",56.2%
same,"viability, T/C","second compound 3.16 µM, first compound 10 µM",19.9%
same,"viability, T/C","second compound 10 µM, first compound 0.0316 µM",48.6%
same,"viability, T/C","second compound 10 µM, first compound 0.1 µM",60.2%
same,"viability, T/C","second compound 10 µM, first compound 0.316 µM",53.8%
same,"viability, T/C","second compound 10 µM, first compound 1 µM",47.7%
same,"viability, T/C","second compound 10 µM, first compound 3.16 µM",36.2%
same,"viability, T/C","second compound 10 µM, first compound 10 µM",18.6%
CCN(c1cc(-c2ccc(CN3CCOCC3)cc2)cc(C(=O)NCc2c(C)cc(C)[nH]c2=O)c1C)C1CCOCC1 + NC1CCC(NC2CC2c2ccccc2)CC1,IC50,second compound 0.1 µM,> 3 µM
same,IC50,second compound 0.316 µM,> 3 µM
same,IC50,second compound 1 µM,> 3 µM
same,IC50,second compound 3.16 µM,> 3 µM
same,IC50,second compound 10 µM,0.587 µM
same,"viability, T/C","second compound 0.1 µM, first compound 0.00949 µM",104%
same,"viability, T/C","second compound 0.1 µM, first compound 0.03 µM",93.3%
same,"viability, T/C","second compound 0.1 µM, first compound 0.0949 µM",80.4%
same,"viability, T/C","second compound 0.1 µM, first compound 0.3 µM",74.6%
same,"viability, T/C","second compound 0.1 µM, first compound 0.949 µM",70.1%
same,"viability, T/C","second compound 0.1 µM, first compound 3 µM",59.8%
same,"viability, T/C","second compound 0.316 µM, first compound 0.00949 µM",98.4%
same,"viability, T/C","second compound 0.316 µM, first compound 0.03 µM",94%
same,"viability, T/C","second compound 0.316 µM, first compound 0.0949 µM",81.1%
same,"viability, T/C","second compound 0.316 µM, first compound 0.3 µM",73.5%
same,"viability, T/C","second compound 0.316 µM, first compound 0.949 µM",68.4%
same,"viability, T/C","second compound 0.316 µM, first compound 3 µM",59.5%
same,"viability, T/C","second compound 1 µM, first compound 0.00949 µM",95.2%
same,"viability, T/C","second compound 1 µM, first compound 0.03 µM",91.1%
same,"viability, T/C","second compound 1 µM, first compound 0.0949 µM",75.1%
same,"viability, T/C","second compound 1 µM, first compound 0.3 µM",75.8%
same,"viability, T/C","second compound 1 µM, first compound 0.949 µM",64%
same,"viability, T/C","second compound 1 µM, first compound 3 µM",58.4%
same,"viability, T/C","second compound 3.16 µM, first compound 0.00949 µM",78%
same,"viability, T/C","second compound 3.16 µM, first compound 0.03 µM",73.2%
same,"viability, T/C","second compound 3.16 µM, first compound 0.0949 µM",65.4%
same,"viability, T/C","second compound 3.16 µM, first compound 0.3 µM",66%
same,"viability, T/C","second compound 3.16 µM, first compound 0.949 µM",60%
same,"viability, T/C","second compound 3.16 µM, first compound 3 µM",55.2%
same,"viability, T/C","second compound 10 µM, first compound 0.00949 µM",55.9%
same,"viability, T/C","second compound 10 µM, first compound 0.03 µM",61.5%
same,"viability, T/C","second compound 10 µM, first compound 0.0949 µM",54.8%
same,"viability, T/C","second compound 10 µM, first compound 0.3 µM",48.6%
same,"viability, T/C","second compound 10 µM, first compound 0.949 µM",50.5%
same,"viability, T/C","second compound 10 µM, first compound 3 µM",43.5%
